From patent publication US8247211B2, “Glycopeptide antibiotics” (American Cyanamid Company, priority 2001, dated 2012)
≈ marks a conversion by molar mass, not a printed value.

Tests used:
Assay in all cases: In vitro antibacterial evaluation: minimum inhibitory concentration (MIC), broth dilution method
Format in all cases: cell-based
Enterococcus sp. = settings: broth dilution, 5×10^5 CFU/mL, 18 hours at 35° C.
Method: (§1) The minimum inhibitory concentration (MIC), the lowest concentration of the antibiotic which inhibits growth of the test organism, is determined by the broth dilution method using Muller-Hinton II […] (Baltimore Biological Laboratories) following the recommendations of the National Committee for Clinical Laboratory Standards [Methods for dilution antimicrobial susceptibility tests for bacteria that grow aerobically, approved standard M7-A2, National Committee for Clinical Laboratory Standards, Villanova, Pa].
(§2) An inoculum level of 5×10^5 CFU/mL, and a range of antibiotic concentrations (64-0.06 μg/mL) is used. […] The test organisms include a spectrum of Gram-positive bacteria comprised of Staphylococcus sp., Streptococcus sp. and Enterococcus sp. These organisms include recent clinical isolates that are resistant to methicillin, penicillin and/or vancomycin.

Streptococcus sp. = settings: broth dilution, 5×10^5 CFU/mL, 18 hours at 35° C.
Method: as §1, §2

Escherichia coli = settings: 5×10^5 CFU/mL, 18 hours at 35° C.
Method: as §1, §2

Staphylococcus sp. = settings: for MIC Staphylococcus aureus (ATCC 29213): strain ATCC 29213; for MIC Staphylococcus aureus (GC 1131): strain GC 1131; for MIC Staphylococcus aureus (GC 3051): strain GC 3051; for MIC Staphylococcus aureus (GC 3053): strain GC 3053; for MIC Staphylococcus aureus (GC 4541): strain GC 4541; for MIC Staphylococcus aureus (GC 4542): strain GC 4542; for MIC Staphylococcus aureus (GC 4544): strain GC 4544; for MIC Staphylococcus aureus (GC 4545): strain GC 4545
Method: as §1, §2

[1] = broth dilution, 5×10^5 CFU/mL, 18 hours at 35° C.
[2] = broth dilution, 18 hours at 35° C.

MIC Enterococccus avium (GC 4558) (Enterococcus sp.): 32 µg/mL (≈ 22.6 µM) | MIC Enterococccus faecalis (ATCC 29212) (Enterococcus sp.): 32 µg/mL (≈ 22.6 µM) | MIC Enterococccus faecalis (GC 2691) (Enterococcus sp.): 32 µg/mL (≈ 22.6 µM) | MIC Enterococccus faecalis (GC 3059) (Enterococcus sp.): 32 µg/mL (≈ 22.6 µM) | MIC Enterococccus faecalis (GC 4552) (Enterococcus sp.): 32 µg/mL (≈ 22.6 µM) | MIC Enterococccus faecalis (GC 4553) (Enterococcus sp.): 32 µg/mL (≈ 22.6 µM) | MIC Enterococccus faecalis (GC 4554) (Enterococcus sp.): 32 µg/mL (≈ 22.6 µM) | MIC Enterococccus faecalis (GC 6189) (Enterococcus sp.): 32 µg/mL (≈ 22.6 µM) | MIC Enterococccus faecium (GC 2243) (Enterococcus sp.): 32 µg/mL (≈ 22.6 µM) | MIC Enterococccus faecium (GC 4556) (Enterococcus sp.): 32 µg/mL (≈ 22.6 µM) | MIC Enterococccus faecium (GC 4557) (Enterococcus sp.): 16 µg/mL (≈ 11.3 µM) | MIC Enterococcus faecalis (GC 2242) (Enterococcus sp.): 32 µg/mL (≈ 22.6 µM) | MIC Streptococcus agalactiae (GC 4564) (Streptococcus sp.): 1 µg/mL (≈ 0.705 µM) | MIC Streptococcus pneumoniae (GC 1894) (Streptococcus sp.): 0.12 µg/mL (≈ 0.0847 µM) | MIC Streptococcus pneumoniae (GC 4565) (Streptococcus sp.): 0.25 µg/mL (≈ 0.176 µM) | MIC Streptococcus pneumonine (ATCC 6301) (Streptococcus sp.): 0.25 µg/mL (≈ 0.176 µM) | MIC Streptococcus pyogenes (GC 4563) (Streptococcus sp.): 0.5 µg/mL (≈ 0.353 µM) | MIC Escherichia coli (ATCC 25922) (Escherichia coli): >64 µg/mL | MIC Escherichia coli (GC 4559) (Escherichia coli): >64 µg/mL | MIC Escherichia coli (GC 4560) (Escherichia coli): 32 µg/mL (≈ 22.6 µM) | MIC Coagulase Negative Staphylococcus (GC 4547) (Staphylococcus sp.; [1]): 32 µg/mL (≈ 22.6 µM) | MIC Coagulase Negative Staphylococcus (GC 4548) (Staphylococcus sp.; [1]): 32 µg/mL (≈ 22.6 µM) | MIC Coagulase Negative Staphylococcus (GC 4549) (Staphylococcus sp.; [1]): 32 µg/mL (≈ 22.6 µM) | MIC Coagulase Negative Staphylococcus (GC 4551) (Staphylococcus sp.; [1]): 32 µg/mL (≈ 22.6 µM) | MIC Coagulase Negative Staphylococcus (GC 6257) (Staphylococcus sp.; [1]): 32 µg/mL (≈ 22.6 µM) | MIC Staphylococcus aureus-SMITH (GC 4543) (Staphylococcus sp.; [1]): 32 µg/mL (≈ 22.6 µM) | MIC Staphylococcus aureus (ATCC 29213) (Staphylococcus sp.): 32 µg/mL (≈ 22.6 µM) | MIC Staphylococcus aureus (ATCC 29213) (Staphylococcus sp.; [2]): 32 µg/mL (≈ 22.6 µM) | MIC Staphylococcus aureus (GC 1131) (Staphylococcus sp.): 32 µg/mL (≈ 22.6 µM) | MIC Staphylococcus aureus (GC 1131) (Staphylococcus sp.; [2]): 32 µg/mL (≈ 22.6 µM) | MIC Staphylococcus aureus (GC 3051) (Staphylococcus sp.): 32 µg/mL (≈ 22.6 µM) | MIC Staphylococcus aureus (GC 3051) (Staphylococcus sp.; [2]): 32 µg/mL (≈ 22.6 µM) | MIC Staphylococcus aureus (GC 3053) (Staphylococcus sp.): 32 µg/mL (≈ 22.6 µM) | MIC Staphylococcus aureus (GC 3053) (Staphylococcus sp.; [2]): 32 µg/mL (≈ 22.6 µM) | MIC Staphylococcus aureus (GC 4541) (Staphylococcus sp.): 8 µg/mL (≈ 5.64 µM) | MIC Staphylococcus aureus (GC 4541) (Staphylococcus sp.; [2]): 8 µg/mL (≈ 5.64 µM) | MIC Staphylococcus aureus (GC 4542) (Staphylococcus sp.): 32 µg/mL (≈ 22.6 µM) | MIC Staphylococcus aureus (GC 4542) (Staphylococcus sp.; [2]): 32 µg/mL (≈ 22.6 µM) | MIC Staphylococcus aureus-SMITH (GC 4543) (Staphylococcus sp.; strain GC 4543, broth dilution, 18 hours at 35° C.): 32 µg/mL (≈ 22.6 µM) | MIC Staphylococcus aureus (GC 4544) (Staphylococcus sp.): 32 µg/mL (≈ 22.6 µM) | MIC Staphylococcus aureus (GC 4544) (Staphylococcus sp.; [2]): 32 µg/mL (≈ 22.6 µM) | MIC Staphylococcus aureus (GC 4545) (Staphylococcus sp.): 32 µg/mL (≈ 22.6 µM) | MIC Staphylococcus aureus (GC 4545) (Staphylococcus sp.; [2]): 32 µg/mL (≈ 22.6 µM) | MIC Coagulase Negative Staphylococcus (GC 4547) (Staphylococcus sp.; strain GC 4547, broth dilution, 18 hours at 35° C.): 32 µg/mL (≈ 22.6 µM) | MIC Coagulase Negative Staphylococcus (GC 4548) (Staphylococcus sp.; strain GC 4548, broth dilution, 18 hours at 35° C.): 32 µg/mL (≈ 22.6 µM) | MIC Coagulase Negative Staphylococcus (GC 4549) (Staphylococcus sp.; strain GC 4549, broth dilution, 18 hours at 35° C.): 32 µg/mL (≈ 22.6 µM) | MIC Coagulase Negative Staphylococcus (GC 4551) (Staphylococcus sp.; strain GC 4551, broth dilution, 18 hours at 35° C.): 32 µg/mL (≈ 22.6 µM) | MIC Coagulase Negative Staphylococcus (GC 6257) (Staphylococcus sp.; strain GC 6257, broth dilution, 18 hours at 35° C.): 32 µg/mL (≈ 22.6 µM)
Compound: CC(C)=CCCC(C)C1OCC2OC(OC3C(CO)OC(Oc4ccc(CC5NC(=O)C(C(C)c6ccccc6)NC(=O)CNC(=O)C(CO)NC(=O)C(C(O)C6CNC(=N)N6C6OC(CO)C(O)C(O)C6O)NC(=O)C(C(O)C6CNC(=N)N6)NC5=O)cc4)C(O)C3O)C(O)C(O)C2O1 (stereo not drawn) [Example 125, Cyclo[glycyl-β-methylphenylalanyl-O-[4-O-[4,6-O-[2,6-dimethylhept-5-en-1-yidene)hexopyranosyl]hexopyranosyl]tyrosyl-3-(2-iminoimidazolidin-4-yl)seryl-3-(3-hexopyranosyl-2-iminoimidazolidin-4-yl)serylseryl]]
MIC Staphylococcus haemolyticus (GC 4546) (Staphylococcus sp.; [1]): 32 µg/mL (≈ 22.6 µM) | MIC Staphylococcus haemolyticus (GC 4546) (Staphylococcus sp.; strain GC 4546, broth dilution, 18 hours at 35° C.): 32 µg/mL (≈ 22.6 µM)
